Target: T1, CCR9 (Homo sapiens, UniProt P51686)
T1 construct: chemokine expressing cells (such as THP-1 cells for CCR2 assay or MOLT-4 cells for CCR9 assay); host or cells: MOLT-4
T1 sequence (P51686 1-369): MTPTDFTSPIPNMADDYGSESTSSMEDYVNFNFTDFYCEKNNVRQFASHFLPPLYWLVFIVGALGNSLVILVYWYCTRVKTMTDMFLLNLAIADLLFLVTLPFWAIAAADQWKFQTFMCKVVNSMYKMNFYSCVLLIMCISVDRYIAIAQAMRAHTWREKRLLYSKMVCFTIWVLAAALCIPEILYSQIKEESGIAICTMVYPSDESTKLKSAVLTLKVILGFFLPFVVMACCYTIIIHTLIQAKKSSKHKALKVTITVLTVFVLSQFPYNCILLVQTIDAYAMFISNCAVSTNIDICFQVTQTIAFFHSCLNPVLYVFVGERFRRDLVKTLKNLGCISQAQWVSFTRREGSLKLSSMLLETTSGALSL
Assay: CCR9 activity in one of the chemotaxis, binding or calcium mobilization assays
Type: cell-based
Conditions: assay not specified per compound
Description: Conventional migration assay was used to determine the efficacy of potential receptor antagonists in blocking migration mediated through chemokines (such as CCR2 or CCR9). This assay was routinely performed using the ChemoTX® microchamber system with a 5-μm pore-sized polycarbonate membrane. To begin such an assay, chemokine expressing cells (such as THP-1 cells for CCR2 assay or MOLT-4 cells for CCR9 assay) were harvested by centrifugation of cell suspension at 1000 RPM on a GS-6R Beckman centrifuge. The cell pellet was resuspended in chemotaxis buffer (HBSS with 0.1% BSA) at 10×10^6 cells/mL for CCR2 assay (5×10^6 cells/mL for CCR9 assay). Test compounds at desired concentrations were prepared from 10 mM stock solutions by serial dilutions in chemotaxis buffer. An equal volume of cells and compounds were mixed and incubated at room temperature for 15 minutes. Afterwards, 20 μL of the mixture was transferred onto the porous membrane of a migration microchamber, with 29 μL of chemokine ligand (0.1 nM chemokine MCP-1 protein for CCR2 assay or […] chemokine TECK protein for CCR9 assay) placed at the lower chamber. Following an incubation at 37° C. (90-minute for CCR2; 150-minute for CCR9), during which cells migrated against the chemokine gradient, the assay was terminated by removing the cell drops from atop the filter. To quantify cells migrated across the membrane, 5 μL of 7×CyQUANT® solution was added to each well in the lower chamber, and the fluorescence signal measured on a Spectrafluor Plus fluorescence plate reader (TECAN, Durham, N.C.). The degree of inhibition was determined by comparing migration signals between compound-treated and untreated cells. IC50 calculation was further performed by non-linear squares regression analysis using Graphpad Prism (Graphpad Software, San Diego, Calif.).
Calcium flux assay measures an increase in intracellular calcium following ligand-induced receptor activation. In the screen of chemokine antagonists, it was used as a secondary assay carried out on a FLIPR® machine (Molecular Devices, Mountain View, Calif.). To begin an assay, chemokine expressing cells (such as THP-1 cells for CCR2 assay or MOLT-4 cells for CCR9 assay) were harvested by centrifugation of cell suspension, and resuspended to 1.5×10^6 cells/mL in HBSS (with 1% fetal calf serum). Cells were then labeled with a calcium indicator dye Fluo-4 AM for 45 minutes at 37° C. with gentle shaking. Following incubation, cells were pelletted, washed once with HBSS and resuspended in the same buffer at a density of 1.6×10^6 cells/mL. One hundred microliters of labeled cells were mixed with 10 μL of test compound at the appropriate concentrations on an assay plate. Chemokine protein (MCP-1 at a final concentration of 0.1 nM for CCR2 assay or TECK at a final concentration of 25 nM for CCR9 assay) to activate the receptor. The degree of inhibition was determined by comparing calcium signals between compound-treated and untreated cells. IC50 calculations were further performed by non-linear squares regression analysis using Graphpad Prism (Graphpad Software, San Diego, Calif.). […]
In the tables below, structures and activity are provided for representative compounds described herein. Activity is provided as follows for either or both of the chemotaxis assay and/or calcium mobilization assays, described above.

| SMILES | IC50 |
| --- | --- |
| Cn1c(CNC2CC2)nnc1-c1cc(Cl)c(F)cc1NS(=O)(=O)c1ccc(C(C)(C)C)cc1 [Compound 50, 4-tert-butyl-N-(4-chloro-2-(5-((cyclopropylamino)methyl)-4-methyl-4H-1,2,4-triazol-3-yl)-5-fluorophenyl)benzenesulfonamide] | < 1000 nM |
| COCc1nnc(-c2cc(Cl)c(F)cc2NS(=O)(=O)c2ccc(C(C)(C)C)cc2)n1C(C)C [Compound 51, 4-tert-butyl-N-(4-chloro-5-fluoro-2-(4-isopropyl-5-(methoxymethyl)-4H-1,2,4-triazol-3-yl)phenyl)benzenesulfonamide] | < 1000 nM |
| COCc1nnc(-c2cc(Cl)c(F)cc2NS(=O)(=O)c2ccc(C(C)(C)C)cc2)n1C1CCOC1 (stereo not shown) [Compound 52, 4-tert-butyl-N-(4-chloro-5-fluoro-2-(5-(methoxymethyl)-4-(tetrahydrofuran-3-yl)-4H-1,2,4-triazol-3-yl)phenyl)benzenesulfonamide] | < 1000 nM |
| CC(C)(C)c1ccc(S(=O)(=O)Nc2cc(F)c(Cl)cc2-c2nncn2[C@@H]2CCOC2)cc1 [Compound 53] | < 1000 nM |
| CC(C)(C)c1ccc(S(=O)(=O)Nc2cc(F)c(Cl)cc2-c2nncn2[C@H]2CCOC2)cc1 [Compound 54] | < 1000 nM |
| Cn1c(C(N)=O)nnc1-c1cc(Cl)c(F)cc1NS(=O)(=O)c1ccc(C(C)(C)C)cc1 [Compound 55, 5-(2-(4-tert-butylphenylsulfonamido)-5-chloro-4-fluorophenyl)-4-methyl-4H-1,2,4-triazole-3-carboxamide] | < 1000 nM |
| CNC(=O)c1nnc(-c2cc(Cl)c(F)cc2NS(=O)(=O)c2ccc(C(C)(C)C)cc2)n1C [Compound 56, 5-(2-(4-tert-butylphenylsulfonamido)-5-chloro-4-fluorophenyl)-N,4-dimethyl-4H-1,2,4-triazole-3-carboxamide] | < 1000 nM |
| Cn1c(-c2cc(Cl)c(F)cc2NS(=O)(=O)c2ccc(C(C)(C)C)cc2)nnc1C(C)(C)O [Compound 57, 4-tert-butyl-N-(4-chloro-5-fluoro-2-(5-(2-hydroxypropan-2-yl)-4-methyl-4H-1,2,4-triazol-3-yl)phenyl)benzenesulfonamide] | < 1000 nM |
| CC(=O)c1nnc(-c2cc(Cl)c(F)cc2NS(=O)(=O)c2ccc(C(C)(C)C)cc2)n1C [Compound 58, N-(2-(5-acetyl-4-methyl-4H-1,2,4-triazol-3-yl)-4-chloro-5-fluorophenyl)-4-tert-butylbenzenesulfonamide] | < 1000 nM |
| CC(O)c1nnc(-c2cc(Cl)c(F)cc2NS(=O)(=O)c2ccc(C(C)(C)C)cc2)n1C (stereo not shown) [Compound 59, 4-tert-butyl-N-(4-chloro-5-fluoro-2-(5-(1-hydroxyethyl)-4-methyl-4H-1,2,4-triazol-3-yl)phenyl)benzenesulfonamide] | < 1000 nM |
| C[C@H](O)c1nnc(-c2cc(Cl)c(F)cc2NS(=O)(=O)c2ccc(C(C)(C)C)cc2)n1C [Compound 60] | < 1000 nM |
| C[C@@H](O)c1nnc(-c2cc(Cl)c(F)cc2NS(=O)(=O)c2ccc(C(C)(C)C)cc2)n1C [Compound 61] | < 1000 nM |
| COCCc1nnc(-c2cc(Cl)c(F)cc2NS(=O)(=O)c2ccc(C(C)(C)C)cc2)n1C [Compound 62, 4-tert-butyl-N-(4-chloro-5-fluoro-2-(5-(2-methoxyethyl)-4-methyl-4H-1,2,4-triazol-3-yl)phenyl)benzenesulfonamide] | < 1000 nM |
| Cn1c(-c2cc(Cl)c(F)cc2NS(=O)(=O)c2ccc(C(C)(C)C)cc2)nnc1C1CCCOC1 (stereo not shown) [Compound 63] | < 1000 nM |
| CCOC(=O)Cc1nnc(-c2cc(Cl)c(F)cc2NS(=O)(=O)c2ccc(C(C)(C)C)cc2)n1C [Compound 64, ethyl 2-(5-(2-(4-tert-butylphenylsulfonamido)-5-chloro-4-fluorophenyl)-4-methyl-4H-1,2,4-triazol-3-yl)acetate] | < 1000 nM |
| Cn1c(CC(C)(C)O)nnc1-c1cc(Cl)c(F)cc1NS(=O)(=O)c1ccc(C(C)(C)C)cc1 [Compound 65, 4-tert-butyl-N-(4-chloro-5-fluoro-2-(5-(2-hydroxy-2-methylpropyl)-4-methyl-4H-1,2,4-triazol-3-yl)phenyl)benzenesulfonamide] | < 1000 nM |
| Cn1c(CN2CCOCC2)nnc1-c1cc(Cl)c(F)cc1NS(=O)(=O)c1ccc(C(C)(C)C)cc1 [Compound 66] | < 1000 nM |
| Cn1c(CS(C)(=O)=O)nnc1-c1cc(Cl)c(F)cc1NS(=O)(=O)c1ccc(C(C)(C)C)cc1 [Compound 67, 4-tert-butyl-N-(4-chloro-5-fluoro-2-(4-methyl-5-(methylsulfonylmethyl)-4H-1,2,4-triazol-3-yl)phenyl)benzenesulfonamide] | < 1000 nM |
| Cc1nnc(-c2cc(Cl)ccc2NS(=O)(=O)c2ccc(OC(C)C)cc2)n1C [Compound 68, N-(4-chloro-2-(4,5-dimethyl-4H-1,2,4-triazol-3-yl)phenyl)-4-isopropoxybenzenesulfonamide] | < 1000 nM |
| CC(C)Oc1ccc(S(=O)(=O)Nc2ccc(Cl)cc2-c2nncn2C(C)C)cc1 [Compound 69, N-(4-chloro-2-(4-isopropyl-4H-1,2,4-triazol-3-yl)phenyl)-4-isopropoxybenzenesulfonamide] | < 1000 nM |

Now from value to molecule:

| IC50 | SMILES |
| --- | --- |
| < 1000 nM | Cn1c(-c2cc(Cl)ccc2NS(=O)(=O)c2ccc(C(C)(C)C)cc2)nnc1C1CCNCC1 [Compound 70] |
| < 1000 nM | CCn1c(C)nnc1-c1cc(F)c(F)cc1NS(=O)(=O)c1ccc(C(C)(C)C)cc1 [Compound 71, 4-tert-butyl-N-(2-(4-ethyl-5-methyl-4H-1,2,4-triazol-3-yl)-4,5-difluorophenyl)benzenesulfonamide] |
| < 1000 nM | Cc1nnc(-c2ccc(F)cc2NS(=O)(=O)c2ccc(C(C)(C)C)cc2)n1C [Compound 72, 4-tert-butyl-N-(2-(4,5-dimethyl-4H-1,2,4-triazol-3-yl)-5-fluorophenyl)benzenesulfonamide] |
| < 1000 nM | Cc1nnc(-c2cc(Cl)ccc2NS(=O)(=O)c2ccc(C(C)(C)C)cc2)n1[C@@H]1CCNC1 [Compound 73] |
| < 1000 nM | CCn1c(C)nnc1-c1ccc(F)cc1NS(=O)(=O)c1ccc(C(C)(C)C)cc1 [Compound 74, 4-tert-butyl-N-(2-(4-ethyl-5-methyl-4H-1,2,4-triazol-3-yl)-5-fluorophenyl)benzenesulfonamide] |
| < 1000 nM | CC(C)(C)c1ccc(S(=O)(=O)Nc2ccc(Cl)cc2-c2nncn2[C@@H]2CCNC2)cc1 [Compound 75] |
| < 1000 nM | Cn1cnnc1-c1cc(Cl)c(F)cc1NS(=O)(=O)c1ccc(C(C)(C)C)cc1 [Compound 76, 4-tert-butyl-N-(4-chloro-5-fluoro-2-(4-methyl-4H-1,2,4-triazol-3-yl)phenyl)benzenesulfonamide] |
| < 1000 nM | Cc1nnc(-c2cc(F)c(F)cc2NS(=O)(=O)c2ccc(C(C)(C)C)cc2)n1[C@H]1CCNC1 [Compound 77, (S)-4-tert-butyl-N-(4,5-difluoro-2-(5-methyl-4-(pyrrolidin-3-yl)-4H-1,2,4-triazol-3-yl)phenyl)benzenesulfonamide] |
| < 1000 nM | CC(C)n1cnnc1-c1cc(Cl)c(F)cc1NS(=O)(=O)c1ccc(C(C)(C)C)cc1 [Compound 78, 4-tert-butyl-N-(4-chloro-5-fluoro-2-(4-isopropyl-4H-1,2,4-triazol-3-yl)phenyl)benzenesulfonamide] |
| < 1000 nM | Cc1ocnc1-c1nnc(-c2cc(Cl)c(F)cc2NS(=O)(=O)c2ccc(C(C)(C)C)cc2)n1C [Compound 79] |
| < 1000 nM | Cc1nnc(-c2cc(Cl)c(F)cc2NS(=O)(=O)c2ccc(C(C)(C)C)cc2)n1C1CCOC1 (stereo not shown) [Compound 80] |

— patent publication US8153818B2, “Triazolyl phenyl benzenesulfonamides” (ChemoCentryx, Inc., priority 2006, dated 2012)
